Measured values from patent US20130041005A1, “PHARMACEUTICAL COMPOSITIONS COMPRISING NEUROPILIN INHIBITORS, AND THEIR USE FOR THE PREVENTION AND/OR TREATMENT OF ANGIOGENIC DISORDERS AND CANCERS” (TRAGEX PHARMA, priority 2011, published 2013).
Entries after “also recorded” stand apart in the source; their conditions may differ.

What was measured:
MDA-MB-231 cells = experiment: In vivo MDA-MB-231 tumor study in NOD-SCID mice; conditions: for tumor size: oral gavage (FIG. 8B); for percentage of survival at day 35: oral gavage (FIG. 8C)
Procedure: Female (NOD-SCID) mice 5-6 weeks old were injected subcutaneously with MDA-MB-231 cells (5.10^6) at a single site on their right flanks. Tumors were allowed to grow (19 days) to less than […] before being pair-matched by tumor size into treatment groups (8 mice/group). One group was treated with vehicles (8 mice/group receiving cremofor 12.5%/ethanol 12.5%/H2O), one group was treated with 10 mg/kg of the compound 1 of the invention (8 mice/group receiving compound 1+cremofor 12.5%/ethanol 12.5%/H2O), one group was treated with 50 mg/kg of the compound 1 of the invention ([…] receiving compound 1+cremofor 12.5%/ethanol 12.5%/H2O). All groups received daily by oral gavages for 5 consecutive days/weeks approximately 100 μL of a solution containing the compound 1 of the invention. Mice were weighed regularly to assess toxicity of the treatments and the tumors were measured with calipers (width×width×length×Pi/6) to determine tumor growth. Mice survival was assessed during the study and metastatic development was investigated in lung, spleen and liver.

HUVEC cells = experiment: Tube formation assay; assay type: cell-based; conditions: HUVEC on collagen, IC50 concentration (FIGS. 1D, 3B)
Procedure: Collagen type I (1 mg/ml, BD) was mixed with 0.1N NaOH, 0.1% bicarbonate and 10× in medium EBM-2 and kept on ice until placed into the wells. The assay was prepared in 96-well plate format and the bottom layer of collagen was formed by adding 70 μL of the solution per well and allowing subsequent gelation at 37° C. for 30 min. The HUVEC cells were then seeded on collagen at […] cells per well. After monolayer formation (one day), a second layer of collagen 200 μL per well was prepared according to the same protocol and gently placed on top of the cell layer. The compounds of the invention were added to the cells at the adhesion step (concentration corresponding to the Inhibitory Concentration 50 (IC50)). After 24 and 48 h of incubation at 37° C., tube formation was observed and pictures were taken.

MDAMB-231 cells = experiment: Adhesion test (crystal violet), MDA-MB-231; assay type: cell-based, Human; conditions: MDAMB-231, FIGS. 1A-C
Procedure: The crystal violet (hexamethyl pararosaniline chloride) is used as biologic colorant. It enters in the living cells, allowing the visualisation of the dark purple adherent living cells on the bottom of the plate.
After an incubation period of 72 h, the adherent cells were fixed with […] paraformaldehyde
3% for 15 min at room temperature. The medium and non-adherent cells were removed, and the cells were washed extensively with […] PBS (+Ca^2+ and +Mg^2+) (Lonza) and then stained with 50 μl of crystal violet 0.04% for 30 min at room temperature. The cells were washed gently 3 times with 100 μl PBS and were permeabilised with 100 μl triton 2% for 15 min. The microplate was stirred to obtain a homogenous solution and absorbance was quantified at 580 nm by Microplate Manager 5.2.
The percentage of inhibition is calculated as follow: % inhibition=100−[(DOsample/DOcontrol)*100].

ERY-1 = experiment: WST-1 proliferation assay, ERY-1; assay type: cell-based; conditions: Homo sapiens; Erythroleukemia ERY-1; read-out: Anti-proliferative activity IC50 (μM) ± SD
Procedure: (§1) All the cancer cell lines were maintained in cultured in DMEM GlutaMAX™ (GIBCO Invitrogen, France, cat no 31966047) enhanced with 10% foetal bovine serum (GIBCO Invitrogen, France, cat no 10270-106) and 1% penicillin G/streptomycin (GIBCO Invitrogen, France, cat no 15140-122). Only Panc-10.5 cells were cultivated in RPMI 1640 medium (Gibco) supplemented with 2 mM L-glutamine, 1.5 g/L sodium bicarbonate, 4.5 g/L glucose, 10 mM HEPES, 1 mM sodium pyruvate, 10 Units/ml human insulin, […] (SVF): 15% (75 ml in 500 ml of medium).
(§2) Cells were grown as subconfluent monolayer and cultured in 75 cm^2 flasks at 37° C., 5% CO2 in a humidified atmosphere, and medium was changed every two days. […]
(§3) The cell proliferation WST-1 assay is a colorimetric assay for the quantification of cell proliferation and viability, based on the enzymatic cleavage of the tetrazolium salt WST-1 added to the culture medium, to a water soluble colored formazan dye, detected by absorbance at 450 nm, by mitochondrial succinate-tetrazolium reductase in viable cells. […]
(§4) After an incubation period of 72 h, at day 4, were prepared the 19 ml medium with reagent WST-1 1 ml ([…]). […] The cells were incubated at 37° C. in a humidified atmosphere of 5% CO2 for 1 h 30 and the absorbance at 450-655 nm was measured by Microplate Manager 5.2 (Bio-Rad).

RAJI = experiment: WST-1 proliferation assay, RAJI; assay type: cell-based; conditions: Homo sapiens; Burkitt's lymphoma RAJI; read-out: Anti-proliferative activity IC50 (μM) ± SD
Procedure: as §1, §2, §3, §4

## Cc1ccc(-c2nc3ccccc3[nH]2)cc1NC(=S)NC(=O)c1ccc2c(c1)OCCO2 [Compound 1, N-[5-(1H-benzimidazol-2-yl)-2-methylphenyl]-N′-(2,3-dihydro-1,4-benzodioxin-6-ylcarbonyl)thiourea]
MDA-MB-231 cells; 10 mg/kg
  tumor size: tumor size was smaller
  percentage of survival at day 35: about 70%
MDA-MB-231 cells; 50 mg/kg
  tumor size: tumor size was smaller
  percentage of survival at day 35: 100%
HUVEC cells
  formation of new blood vessels (tube formation): inhibited the tube formation; also recorded: effectively inhibited
MDAMB-231 cells
  inhibition of adhesion of cancer cells in culture: inhibited the adhesion
ERY-1
  IC50: 0.3 ± 0.04 µM
RAJI
  IC50: 1.5 ± 0.01 µM

## O=C(NC(=S)Nc1cccc(-c2nc3ccccc3[nH]2)c1)c1ccc2c(c1)OCCO2 [Compound 2, N-[3-(1H-benzimidazol-2-yl)phenyl]-N′-(2,3-dihydro-1,4-benzodioxin-6-ylcarbonyl)thiourea]
HUVEC cells
  formation of new blood vessels (tube formation): inhibited the tube formation; also recorded: effectively inhibited
MDAMB-231 cells
  inhibition of adhesion of cancer cells in culture: inhibited the adhesion
ERY-1
  IC50: 0.1 ± 0.05 µM
RAJI
  IC50: 1.3 ± 0.04 µM
